In paper PMC12501004:

Assay: intramolecular Trp triplet quenching by Cys (photoinduced electron transfer, contact formation) in full-length measles virus NTAIL single C-W variants; nanosecond transient absorption (289 nm pump, 458 nm probe); tau_CW from 1/tau_CW = 1/tau_obs - 1/tau_0
Conditions: aqueous buffer: 15 mM Tris, 150 mM NaCl, 1 mM TCEP, pH 7.6, N2O-saturated; 0.1 mM; 20.0 °C; scale: us

Going from “H-GSTTEDKISRAVGPRQAQVSFLHGDQCENELPRLGGKEDRRVKQSRGEARESWRETGPSRASDARAAHLPTGTPLDIDTASESSQDPQDSRRSADALLRLQAMAGISEEQGSDTDTPIVYNDRNLLD-OH” to “H-GSTTEDKISRAVGPRQAQVSFLHGDQSENELPRLGGKEDRRVKQSRGEARESWRETGPSRASDARAAHLPTGTPLDIDTASESCQDPQDSRRSADALLRLQAMAGISEEQGSDTDTPIVYNDRNLLD-OH”, the ring closure, rate rises from 3.1 to 3.21.

First: H-GSTTEDKISRAVGPRQAQVSFLHGDQSENELPRLGGKEDRRVKQSRGEARESYRETGPSRASDARAAHLPTGTPLDIDTASESSQDPQDCRRSADALLRLQAMAGISEEQGSDTDTPIVWNDRNLLD-OH
Second: H-GSTTEDKISRAVGPRQAQVSFLHGDQSENELPRLGGKEDRRVKQSRGEARESYRETGPSRASDARAAHLPTGTPLDIDTASESCQDPQDSRRSADALLRLQAMAGISEEQGSDTDTPIVWNDRNLLD-OH
The ring closure, rate of the first is lower: 2.76 for the first, 7.6 for the second.

With “H-GSTTEDKICRAVGPRQAQVSFLHGDQSENELPRLGGKEDRRVKQSRGEARESWRETGPSRASDARAAHLPTGTPLDIDTASESSQDPQDSRRSADALLRLQAMAGISEEQGSDTDTPIVYNDRNLLD-OH” the ring closure, rate was 6.63.
